Data taken from patent publication US20070078109A1, “Compositions and methods used to treat acne and candida” (priority 2004, published 2007).

Tests used:
[1] = tested on: C. albicans isolates, including one fluconazole-resistant strain; settings: AGP at 0.25% topical, 1-7 days, cyclophosphamide-immunosuppressed animals; compared with 2% miconazole
Description: Pre-clinical studies with three C. albicans isolates, including one fluconazole-resistant strain, were performed using immunosuppressed animals with cyclophosphamide.

[2] = tested on: Staphyloccocus aureus; settings: at low concentration
[3] = tested on: P. acnes; settings: complete inhibition
[4] = tested on: P. acnes and various pathogenic candida; settings: including against resistant pathogenic strains
[5] = tested on: acne; settings: 4% active AGP formula; in less than 48 hours
[6] = tested on: Escherichia coli; settings: at low concentration

## N-acetylglucoseamine (AGA)-glucosamine (GA)-pyrithione (PR) [AGP]
[1]
  clearing the infection: equivalent in clearing the infection as 2% miconazole
[2]
  activity toward Staphyloccocus aureus: active
[3]
  concentration that completely inhibited P. acnes: less than 0.1 mg/mL
[4]
  bactericidal activity: excellent bactericidal activity
[5]
  results in acne patients: remarkable results
[6]
  activity toward Escherichia coli: active
